Among the data in patent US9409952B2, “Peptide-compound cyclization method” (Chugai Seiyaku Kabushiki Kaisha, priority 2011, dated 2016) are microsomal CLint and Papp values, retold here.

Molecules are shown by their SMILES. Starred links: 1 amine or outer side, 2 acyl side, 3 side chain; linkers in the order of their positions; H or OH if unused. Positions of bridges follow the written chain, without caps; N, C: chain ends. Non-standard residues stand in square brackets, D forms with d. Residues, ends and D or L forms follow the SMILES beside them. *: point of attachment. NMeF = CN[C@@H](Cc1ccccc1)C(=O)O; NMeI = CC[C@H](C)[C@H](NC)C(=O)O; NMeβAla = CN(CCC(=O)[*:2])[*:1]; NMeL = CN[C@@H](CC(C)C)C(=O)O; NMeV = CN[C@H](C(=O)O)C(C)C; NMeA = CN[C@@H](C)C(=O)O; Piperidide = C1CCN(*)CC1; dNMeA = CN[C@H](C)C(=O)O; Sar = CNCC(=O)O; tBu = CC(C)(C)*

The first series is described as follows: Metabolic stability in human hepatic microsome. In kind it is in vitro ADME. Conditions: human, microsomes, pH 7.4, CL NADPH(+).
`CC[C@H](C)[C@H](NC(=O)[C@H](Cc1ccccc1)N(C)C(=O)[C@@H]1CC(=O)N(C)[C@@H](C)C(=O)N[C@@H](Cc2ccccc2)C(=O)N(C)[C@@H](CC(C)C)C(=O)N(C)[C@@H](CC(C)C)C(=O)N[C@@H](Cc2ccccc2)C(=O)N(C)[C@@H](CC(C)C)C(=O)N[C@@H]([C@@H](C)CC)C(=O)N2CCC[C@H]2C(=O)N[C@@H]([C@@H](C)O)C(=O)N[C@@H](CC(C)C)C(=O)N1)C(=O)N1CCCCC1` [DP-962] ([NMeA]F[NMeL][NMeL]F[NMeL]IPTLD[NMeF]I-Piperidide; lactam N-11) gave a microsomal CLint at 1 uM of 22 µL/min/mg.

Still in this series, the particulars now being: microsomes, pH 7.4; human hepatic microsome, NADPH(+); read-out: CL NADPH(+).
Regarding `CC[C@H](C)[C@H](NC(=O)[C@H](CC(C)C)N(C)C(=O)[C@H](Cc1ccccc1)N(C)C(=O)[C@@H]1CC(=O)N(C)[C@@H](C)C(=O)N[C@@H](C(C)C)C(=O)N[C@@H](C)C(=O)N[C@@H](CC(C)C)C(=O)N(C)[C@@H](Cc2ccccc2)C(=O)N[C@@H](CC(C)C)C(=O)N[C@@H]([C@@H](C)O)C(=O)N1)C(=O)N1CCCCC1` [DP-932] ([NMeA]VAL[NMeF]LTD[NMeF][NMeL]I-Piperidide; lactam N-8), the microsomal CLint at 1 uM was found to be 108 µL/min/mg.

In the case of `CC[C@H](C)[C@H](NC(=O)[C@H](CC(C)C)NC(=O)[C@H](CC(C)C)N(C)C(=O)[C@@H]1CC(=O)N[C@H](C(C)C)C(=O)N[C@@H](CC(C)C)C(=O)N(C)[C@@H](CC(C)C)C(=O)N[C@@H]([C@@H](C)O)C(=O)N[C@@H](C(C)C)C(=O)N(C)[C@@H](CC(C)C)C(=O)N(C)[C@@H](Cc2ccccc2)C(=O)N1)C(=O)N1CCCCC1` [DP-933] ([dV]L[NMeL]TV[NMeL][NMeF]D[NMeL]LI-Piperidide; lactam N-8), the microsomal CLint at 1 uM was 43 µL/min/mg.

Regarding `CC[C@H](C)[C@H](NC(=O)[C@H](CC(C)C)N(C)C(=O)[C@H](CC(C)C)NC(=O)[C@@H]1CC(=O)N[C@@H](C)C(=O)N(C)[C@@H](Cc2ccccc2)C(=O)N(C)[C@@H](CC(C)C)C(=O)N(C)[C@@H](CC(C)C)C(=O)N[C@@H](Cc2ccccc2)C(=O)N[C@@H]([C@@H](C)O)C(=O)N[C@@H](C(C)C)C(=O)N1)C(=O)N1CCCCC1` [DP-934] (A[NMeF][NMeL][NMeL]FTVDL[NMeL]I-Piperidide; lactam N-8), the microsomal CLint at 1 uM stood at 143 µL/min/mg.

Regarding `CC[C@H](C)[C@H](NC(=O)[C@H](Cc1ccccc1)N(C)C(=O)[C@H](Cc1ccccc1)N(C)C(=O)[C@@H]1CC(=O)N(C)CCC(=O)N(C)[C@@H](CC(C)C)C(=O)N(C)[C@@H](Cc2ccccc2)C(=O)N[C@@H](CC(C)C)C(=O)N(C)[C@@H](CC(C)C)C(=O)N(C)[C@@H](CC(C)C)C(=O)N[C@@H]([C@@H](C)O)C(=O)N(C)[C@@H](C)C(=O)N1)C(=O)N1CCCCC1` [DP-960] ([NMeβAla][NMeL][NMeF]L[NMeL][NMeL]T[NMeA]D[NMeF][NMeF]I-Piperidide; lactam N-9), the microsomal CLint at 1 uM worked out at 36 µL/min/mg.

A further series can be described thus: PAMPA (parallel artificial membrane permeability assay). In kind it is in vitro ADME. Conditions: PAMPA, pH 6.5. The procedure: 4 μL of a phospholipid-organic solvent solution composed of 10% (w/v) of egg lecithin, 0.5% (w/v) of cholesterol and dodecane (all purchased from Fluka) was added to a Millipore 96-well membrane filter (hydrophobic PVDF (polyvinylidene difluoride), pore size 0.45 microm) (purchased from Millipore Japan) to make an artificial phospholipid membrane.
A DMSO solution containing the compound at a concentration of 10 mM was added in a percentage of 0.5% (v/v) to a 50 mM MOPSO buffer, pH 6.5, containing 5.0% (w/v) of glycocholic acid, and 330 μL of the mixture was added to a 96-well plate made of Teflon (donor plate). The above artificial phospholipid membrane plate was attached onto the donor plate, and 280 μL of a solution obtained by adding DMSO in a percentage of 0.5% (v/v) to a 50 mM MOPSO buffer, pH 6.5, containing 5.0% (w/w) of glycocholic acid was added onto the artificial phospholipid membrane (acceptor plate). These plates were allowed to stand at 37° C. for 18 hours, after which the concentrations of the compound in the solutions in the donor plate and the acceptor plate were measured by LC/MS or LC/UV, and the membrane permeation rate of the compound (Pe) was calculated by the following formulas (1) and (2), where t is the testing time, A is the membrane filter area, VD is the amount of the donor solution, VA is the amount of the acceptor solution, CD,t is the concentration of the compound in the donor solution at the time t, and CA,t is the concentration of the compound in the acceptor solution at the time t.
Take `CC[C@H](C)[C@H]1C(=O)N[C@H](C(=O)N2CCCCC2)CC(=O)N[C@@H](C)C(=O)N(C)[C@@H](C)C(=O)N(C)[C@@H](Cc2ccccc2)C(=O)N(C)[C@@H](CC(C)C)C(=O)N[C@@H]([C@@H](C)O)C(=O)N(C)CC(=O)N(C)[C@@H](CC(C)C)C(=O)N[C@@H](COC(C)(C)C)C(=O)N1C` [DP-36] (A[NMeA][NMeF][NMeL]T[Sar][NMeL]S(tBu)[NMeI]D-Piperidide; lactam N-10): the Papp at 18 hours, 50 µM turned out to be 27 ×10⁻⁶ cm/s.

`CC[C@H](C)[C@H]1C(=O)N[C@H](C(=O)N2CCCCC2)CC(=O)N(C)CC(=O)N(C)[C@@H](CC(C)C)C(=O)N[C@@H](C)C(=O)N(C)[C@@H](CC(C)C)C(=O)N(C)[C@@H](Cc2ccccc2)C(=O)N(C)[C@@H](CC(C)C)C(=O)N(C)[C@@H](Cc2ccccc2)C(=O)N[C@@H]([C@@H](C)O)C(=O)N(C)[C@@H](C)C(=O)N1C` [DP-70] ([Sar][NMeL]A[NMeL][NMeF][NMeL][NMeF]T[NMeA][NMeI]D-Piperidide; lactam N-11) came in with a Papp at 18 hours, 50 µM of 40 ×10⁻⁶ cm/s.

Regarding `CC[C@H](C)[C@H]1C(=O)N[C@H](C(=O)N2CCCCC2)CC(=O)N[C@H](C)C(=O)N[C@@H]([C@@H](C)O)C(=O)N(C)[C@@H](C)C(=O)N(C)[C@@H](C(C)C)C(=O)N[C@@H](Cc2ccccc2)C(=O)N(C)CC(=O)N(C)[C@@H](CC(C)C)C(=O)N[C@@H](C)C(=O)N1C` [DP-71] ([dA]T[NMeA][NMeV]F[Sar][NMeL]A[NMeI]D-Piperidide; lactam N-10), the Papp at 18 hours, 50 µM was determined as 5.4 ×10⁻⁶ cm/s.

Regarding `CC(C)C[C@@H]1NC(=O)[C@H](Cc2ccccc2)N(C)C(=O)[C@@H](C(C)C)NC(=O)C[C@@H](C(=O)N2CCCCC2)NC(=O)[C@H](C(C)C)N(C)C(=O)[C@H](Cc2ccccc2)N(C)C(=O)[C@H](COC(C)(C)C)NC(=O)[C@H](CC(C)C)N(C)C(=O)CN(C)C(=O)[C@H]([C@@H](C)O)NC(=O)[C@H](CC(C)C)N(C)C1=O` [DP-149] ([dV][NMeF]L[NMeL]T[Sar][NMeL]S(tBu)[NMeF][NMeV]D-Piperidide; lactam N-11), the Papp at 18 hours, 50 µM turned out to be 17 ×10⁻⁶ cm/s.

Regarding `CC[C@H](C)[C@@H]1NC(=O)[C@H](CC(C)C)N(C)C(=O)[C@H](Cc2ccccc2)N(C)C(=O)[C@H]([C@@H](C)O)NC(=O)[C@H](CC(C)C)N(C)C(=O)[C@H](CC(C)C)N(C)C(=O)[C@H](C)N(C)C(=O)C[C@@H](C(=O)N2CCCCC2)NC(=O)[C@H](CC(C)C)NC(=O)[C@H](Cc2ccccc2)N(C)C(=O)[C@H](C)N(C)C1=O` [DP-154] ([NMeA][NMeL][NMeL]T[NMeF][NMeL]I[NMeA][NMeF]LD-Piperidide; lactam N-11), the Papp at 18 hours, 50 µM came out at 9.3 ×10⁻⁶ cm/s.

Staying with this series, now noted: PAMPA; membrane permeation rate (Pe); 50 mM MOPSO buffer pH 6.5 with 5.0% glycocholic acid, 37° C., 18 hours; read-out: iPAMPA Pe.
Turning to `CC(C)C[C@@H]1NC(=O)[C@H](Cc2ccccc2)N(C)C(=O)[C@H](C)NC(=O)[C@H](C)N(C)C(=O)[C@H]([C@@H](C)O)NC(=O)[C@H](CC(C)C)N(C)C(=O)[C@H](C)N(C)C(=O)C[C@@H](C(=O)N2CCCCC2)NC(=O)[C@H](CC(C)C)N(C)C(=O)[C@H](Cc2ccccc2)N(C)C(=O)[C@H](CC(C)C)N(C)C1=O` [DP-156] ([NMeA][NMeL]T[NMeA]A[NMeF]L[NMeL][NMeF][NMeL]D-Piperidide; lactam N-11), the Papp at 18 hours, 50 µM stood at 24 ×10⁻⁶ cm/s.

Regarding `CC(C)C[C@H]1C(=O)N(C)[C@@H](Cc2ccccc2)C(=O)N(C)[C@@H](Cc2ccccc2)C(=O)N[C@@H]([C@@H](C)O)C(=O)N(C)[C@@H](C)C(=O)N(C)[C@@H](CC(C)C)C(=O)N[C@H](C(=O)N2CCCCC2)CC(=O)N(C)[C@H](C)C(=O)N(C)[C@@H](CC(C)C)C(=O)N(C)[C@@H](CC(C)C)C(=O)N[C@@H](C)C(=O)N1C` [DP-166] ([dNMeA][NMeL][NMeL]A[NMeL][NMeF][NMeF]T[NMeA][NMeL]D-Piperidide; lactam N-11), the Papp at 18 hours, 50 µM stood at 55 ×10⁻⁶ cm/s.

For the molecule `CC[C@H](C)[C@@H]1NC(=O)[C@H](C)NC(=O)C[C@@H](C(=O)N(C)[C@@H](Cc2ccccc2)C(=O)N[C@@H](C)C(=O)N2CCCCC2)NC(=O)[C@H](Cc2ccccc2)N(C)C(=O)[C@H](CC(C)C)N(C)C(=O)[C@H](C)N(C)C(=O)[C@H]([C@@H](C)O)NC(=O)[C@H](Cc2ccccc2)N(C)C(=O)[C@H](CC(C)C)N(C)C(=O)[C@H](C)N(C)C(=O)[C@H](CC(C)C)N(C)C1=O` [DP-178] (AI[NMeL][NMeA][NMeL][NMeF]T[NMeA][NMeL][NMeF]D[NMeF]A-Piperidide; lactam N-11), the Papp at 18 hours, 50 µM came to 1 ×10⁻⁶ cm/s.

In the case of `CC(C)C[C@H]1C(=O)N(C)[C@@H](CC(C)C)C(=O)N(C)[C@@H](Cc2ccccc2)C(=O)N[C@@H]([C@@H](C)O)C(=O)N(C)[C@@H](C)C(=O)N(C)[C@@H](CC(C)C)C(=O)N(C)[C@@H](Cc2ccccc2)C(=O)N[C@H](C(=O)N(C)[C@@H](Cc2ccccc2)C(=O)N[C@@H](C)C(=O)N2CCCCC2)CC(=O)N(C)[C@H](C)C(=O)N(C)[C@@H](CC(C)C)C(=O)N[C@@H](C)C(=O)N1C` [DP-184] ([dNMeA][NMeL]A[NMeL][NMeL][NMeF]T[NMeA][NMeL][NMeF]D[NMeF]A-Piperidide; lactam N-11), the Papp at 18 hours, 50 µM was 1.3 ×10⁻⁶ cm/s.

As for `CC[C@H](C)[C@@H]1NC(=O)[C@H](CC(C)C)N(C)C(=O)[C@H](C(C)C)N(C)C(=O)[C@H](Cc2ccccc2)N(C)C(=O)[C@H](CC(C)C)NC(=O)[C@H](C)N(C)C(=O)[C@H](C)N(C)C(=O)[C@H]([C@@H](C)O)NC(=O)[C@H](Cc2ccccc2)N(C)C(=O)CN(C)C(=O)C[C@@H](C(=O)N(C)[C@@H](Cc2ccccc2)C(=O)N[C@@H](C)C(=O)N2CCCCC2)NC1=O` [DP-186] ([Sar][NMeF]T[NMeA][NMeA]L[NMeF][NMeV][NMeL]ID[NMeF]A-Piperidide; lactam N-11), the Papp at 18 hours, 50 µM stood at 37 ×10⁻⁶ cm/s.

As for `CC(C)C[C@H]1C(=O)N[C@H](C(=O)N(C)[C@@H](Cc2ccccc2)C(=O)N[C@@H](C)C(=O)N2CCCCC2)CC(=O)N(C)[C@@H](C)C(=O)N[C@@H]([C@@H](C)O)C(=O)N(C)[C@@H](Cc2ccccc2)C(=O)N(C)[C@@H](CC(C)C)C(=O)N(C)[C@@H](CC(C)C)C(=O)N[C@@H](C)C(=O)N(C)[C@@H](Cc2ccccc2)C(=O)N(C)[C@@H](CC(C)C)C(=O)N1C` [DP-192] ([NMeA]T[NMeF][NMeL][NMeL]A[NMeF][NMeL][NMeL]D[NMeF]A-Piperidide; lactam N-10), the Papp at 18 hours, 50 µM was found to be 0.64 ×10⁻⁶ cm/s.
